# Results: the supplement of paper PMC10307832
# Legend:
# Assay in all cases: relative viability (nuclei count vs DMSO), 5 days (fraction); higher = more cells survive
# [1] = test system: COR-L 105
# Method in brief: (§1)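 Five library-drug doses in √10 steps were combined with a fixed anchor-drug dose, or a single drug was given alone, by pin tool to lung cancer cell lines in 1536-well plates the day after seeding. Nuclei were stained and counted after 5 days. Relative viability is the nuclei count in treated wells over that in vehicle wells, taken as the median of duplicate plates.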
# [2] = test system: COR-L23
# Method in brief: as §1
# [3] = test system: EPLC-272H
# Method in brief: as §1
# [4] = test system: H3255
# Method in brief: as §1
# [5] = test system: HCC-15
# Method in brief: as §1
# [6] = test system: HCC-827
# Method in brief: as §1
# [7] = test system: LCLC-103H
# Method in brief: as §1
# [8] = test system: NCI-H1437
# Method in brief: as §1
# [9] = test system: NCI-H1650
# Method in brief: as §1
# [10] = test system: NCI-H1651
# Method in brief: as §1
# [11] = test system: NCI-H1755
# Method in brief: as §1
# [12] = test system: NCI-H1944
# Method in brief: as §1
# [13] = test system: NCI-H1975
# Method in brief: as §1
# [14] = test system: NCI-H2087
# Method in brief: as §1
# [15] = test system: NCI-H358
# Method in brief: as §1
# [16] = test system: NCI-H520
# Method in brief: as §1
# [17] = test system: NCI-H522
# Method in brief: as §1
# [18] = test system: NCI-H647
# Method in brief: as §1
# [19] = test system: NCI-H650
# Method in brief: as §1
# [20] = test system: NCI-H661
# Method in brief: as §1
# [21] = test system: NCI-H727
# Method in brief: as §1
smiles,measurement,setting,value
COCC1(CO)C(=O)C2CCN1CC2 (configuration not stated) [PRIMA-1MET] + Cc1cc(Nc2cc(N3CCN(C)CC3)nc(Sc3ccc(NC(=O)C4CC4)cc3)n2)n[nH]1 [Tozasertib] (partner 0.1 µM),relative viability,[1]; first compound 0.2 µM,0.228
same,relative viability,[1]; first compound 0.6325 µM,0.338
same,relative viability,[1]; first compound 2 µM,0.32
same,relative viability,[1]; first compound 6.325 µM,0.294
same,relative viability,[1]; first compound 20 µM,0.167
same,relative viability,[2]; first compound 0.2 µM,0.223
same,relative viability,[2]; first compound 0.6325 µM,0.285
same,relative viability,[2]; first compound 2 µM,0.212
same,relative viability,[2]; first compound 6.325 µM,0.195
same,relative viability,[2]; first compound 20 µM,0.0198
same,relative viability,[3]; first compound 2 µM,0.186
same,relative viability,[3]; first compound 6.325 µM,0.196
same,relative viability,[3]; first compound 20 µM,0.105
same,relative viability,[4]; first compound 0.2 µM,0.807
same,relative viability,[4]; first compound 0.6325 µM,0.765
same,relative viability,[4]; first compound 2 µM,0.461
same,relative viability,[4]; first compound 6.325 µM,0.615
same,relative viability,[4]; first compound 20 µM,0.505
same,relative viability,[5]; first compound 0.2 µM,0.431
same,relative viability,[5]; first compound 0.6325 µM,0.363
same,relative viability,[5]; first compound 2 µM,0.356
same,relative viability,[5]; first compound 6.325 µM,0.422
same,relative viability,[5]; first compound 20 µM,0.151
same,relative viability,[6]; first compound 0.2 µM,0.424
same,relative viability,[6]; first compound 0.6325 µM,0.387
same,relative viability,[6]; first compound 2 µM,0.376
same,relative viability,[6]; first compound 6.325 µM,0.399
same,relative viability,[6]; first compound 20 µM,0.379
same,relative viability,[7]; first compound 0.2 µM,0.554
same,relative viability,[7]; first compound 0.6325 µM,0.453
same,relative viability,[7]; first compound 2 µM,0.393
same,relative viability,[7]; first compound 6.325 µM,0.419
same,relative viability,[7]; first compound 20 µM,0.161
same,relative viability,[8]; first compound 0.2 µM,0.41
same,relative viability,[8]; first compound 0.6325 µM,0.408
same,relative viability,[8]; first compound 2 µM,0.407
same,relative viability,[8]; first compound 6.325 µM,0.411
same,relative viability,[8]; first compound 20 µM,0.407
same,relative viability,[9]; first compound 0.2 µM,0.516
same,relative viability,[9]; first compound 0.6325 µM,0.377
same,relative viability,[9]; first compound 2 µM,0.492
same,relative viability,[9]; first compound 6.325 µM,0.537
same,relative viability,[9]; first compound 20 µM,0.0907
same,relative viability,[10]; first compound 0.2 µM,0.848
same,relative viability,[10]; first compound 0.6325 µM,0.66
same,relative viability,[10]; first compound 2 µM,0.723
same,relative viability,[10]; first compound 6.325 µM,0.712
same,relative viability,[10]; first compound 20 µM,0.649
same,relative viability,[11]; first compound 0.2 µM,0.699
same,relative viability,[11]; first compound 0.6325 µM,0.596
same,relative viability,[11]; first compound 2 µM,0.509
same,relative viability,[11]; first compound 6.325 µM,0.554
same,relative viability,[11]; first compound 20 µM,0.455
same,relative viability,[12]; first compound 0.2 µM,0.225
same,relative viability,[12]; first compound 0.6325 µM,0.242
same,relative viability,[12]; first compound 2 µM,0.222
same,relative viability,[12]; first compound 6.325 µM,0.243
same,relative viability,[12]; first compound 20 µM,0.23
same,relative viability,[13]; first compound 0.2 µM,1.05
same,relative viability,[13]; first compound 0.6325 µM,0.726
same,relative viability,[13]; first compound 2 µM,0.878
same,relative viability,[13]; first compound 6.325 µM,0.738
same,relative viability,[13]; first compound 20 µM,0.454
same,relative viability,[14]; first compound 0.2 µM,0.321
same,relative viability,[14]; first compound 0.6325 µM,0.279
same,relative viability,[14]; first compound 2 µM,0.267
same,relative viability,[14]; first compound 6.325 µM,0.271
same,relative viability,[14]; first compound 20 µM,0.126
same,relative viability,[15]; first compound 0.2 µM,0.105
same,relative viability,[15]; first compound 2 µM,0.098
same,relative viability,[15]; first compound 6.325 µM,0.117
same,relative viability,[15]; first compound 20 µM,0.0866
same,relative viability,[16]; first compound 0.2 µM,0.402
same,relative viability,[16]; first compound 0.6325 µM,0.416
same,relative viability,[16]; first compound 6.325 µM,0.384
same,relative viability,[16]; first compound 20 µM,0.236
same,relative viability,[17]; first compound 0.2 µM,0.602
same,relative viability,[17]; first compound 0.6325 µM,0.455
same,relative viability,[17]; first compound 2 µM,0.46
same,relative viability,[17]; first compound 6.325 µM,0.507
same,relative viability,[17]; first compound 20 µM,0.0873
same,relative viability,[18]; first compound 0.2 µM,0.615
same,relative viability,[18]; first compound 0.6325 µM,0.324
same,relative viability,[18]; first compound 2 µM,0.263
same,relative viability,[18]; first compound 6.325 µM,0.543
same,relative viability,[18]; first compound 20 µM,0.0988
same,relative viability,[19]; first compound 0.2 µM,0.91
same,relative viability,[19]; first compound 2 µM,0.639
same,relative viability,[19]; first compound 6.325 µM,0.749
same,relative viability,[19]; first compound 20 µM,0.306
same,relative viability,[20]; first compound 0.2 µM,0.369
same,relative viability,[20]; first compound 0.6325 µM,0.354
same,relative viability,[20]; first compound 2 µM,0.357
same,relative viability,[20]; first compound 6.325 µM,0.343
same,relative viability,[20]; first compound 20 µM,0.353
same,relative viability,[21]; first compound 0.2 µM,0.549
same,relative viability,[21]; first compound 0.6325 µM,0.543
same,relative viability,[21]; first compound 2 µM,0.643
same,relative viability,[21]; first compound 6.325 µM,0.487
same,relative viability,[21]; first compound 20 µM,0.293
COCC1(CO)C(=O)C2CCN1CC2 (configuration not stated) [PRIMA-1MET] + O=C(CCCCCCC(=O)Nc1ccccc1)NO [Vorinostat] (partner 1 µM),relative viability,[1]; first compound 0.2 µM,1.13
same,relative viability,[1]; first compound 0.6325 µM,0.859
same,relative viability,[1]; first compound 2 µM,0.769
same,relative viability,[1]; first compound 6.325 µM,0.771
same,relative viability,[1]; first compound 20 µM,0.196
same,relative viability,[2]; first compound 0.2 µM,0.487
same,relative viability,[2]; first compound 0.6325 µM,0.432
same,relative viability,[2]; first compound 2 µM,0.454
same,relative viability,[2]; first compound 6.325 µM,0.344
same,relative viability,[2]; first compound 20 µM,0.0281
same,relative viability,[3]; first compound 0.2 µM,0.536
same,relative viability,[3]; first compound 0.6325 µM,0.581
same,relative viability,[3]; first compound 2 µM,0.417
same,relative viability,[3]; first compound 6.325 µM,0.534
same,relative viability,[3]; first compound 20 µM,0.0678
same,relative viability,[4]; first compound 0.2 µM,0.745
same,relative viability,[4]; first compound 0.6325 µM,0.779
same,relative viability,[4]; first compound 2 µM,0.809
same,relative viability,[4]; first compound 6.325 µM,0.901
same,relative viability,[4]; first compound 20 µM,0.656
same,relative viability,[5]; first compound 0.2 µM,0.962
same,relative viability,[5]; first compound 0.6325 µM,0.798
same,relative viability,[5]; first compound 2 µM,0.887
same,relative viability,[5]; first compound 6.325 µM,0.871
same,relative viability,[5]; first compound 20 µM,0.758
same,relative viability,[6]; first compound 0.2 µM,0.939
same,relative viability,[6]; first compound 0.6325 µM,0.173
same,relative viability,[6]; first compound 2 µM,0.661
same,relative viability,[6]; first compound 6.325 µM,0.816
same,relative viability,[6]; first compound 20 µM,0.855
same,relative viability,[7]; first compound 0.2 µM,0.76
same,relative viability,[7]; first compound 0.6325 µM,0.64
same,relative viability,[7]; first compound 2 µM,0.558
same,relative viability,[7]; first compound 6.325 µM,0.771
same,relative viability,[7]; first compound 20 µM,0.793
same,relative viability,[8]; first compound 0.2 µM,0.951
same,relative viability,[8]; first compound 0.6325 µM,0.685
same,relative viability,[8]; first compound 2 µM,0.792
same,relative viability,[8]; first compound 6.325 µM,0.939
same,relative viability,[8]; first compound 20 µM,0.776
same,relative viability,[9]; first compound 0.2 µM,0.619
same,relative viability,[9]; first compound 0.6325 µM,0.403
same,relative viability,[9]; first compound 2 µM,0.55
same,relative viability,[9]; first compound 6.325 µM,0.703
same,relative viability,[9]; first compound 20 µM,0.406
same,relative viability,[10]; first compound 0.2 µM,0.563
same,relative viability,[10]; first compound 0.6325 µM,0.188
same,relative viability,[10]; first compound 2 µM,0.458
same,relative viability,[10]; first compound 6.325 µM,0.617
same,relative viability,[10]; first compound 20 µM,0.564
same,relative viability,[11]; first compound 0.2 µM,0.944
same,relative viability,[11]; first compound 0.6325 µM,0.765
same,relative viability,[11]; first compound 2 µM,0.721
same,relative viability,[11]; first compound 6.325 µM,0.748
same,relative viability,[11]; first compound 20 µM,0.663
same,relative viability,[12]; first compound 0.2 µM,0.724
same,relative viability,[12]; first compound 0.6325 µM,0.4
same,relative viability,[12]; first compound 2 µM,0.428
same,relative viability,[12]; first compound 6.325 µM,0.531
same,relative viability,[12]; first compound 20 µM,0.539
same,relative viability,[13]; first compound 0.2 µM,0.766
same,relative viability,[13]; first compound 0.6325 µM,0.657
same,relative viability,[13]; first compound 2 µM,0.736
same,relative viability,[13]; first compound 6.325 µM,0.725
same,relative viability,[13]; first compound 20 µM,0.698
same,relative viability,[14]; first compound 0.6325 µM,0.479
same,relative viability,[14]; first compound 2 µM,0.604
same,relative viability,[14]; first compound 6.325 µM,0.477
same,relative viability,[14]; first compound 20 µM,0.336
same,relative viability,[15]; first compound 0.2 µM,0.82
same,relative viability,[15]; first compound 0.6325 µM,0.695
same,relative viability,[15]; first compound 2 µM,0.669
same,relative viability,[15]; first compound 6.325 µM,0.786
same,relative viability,[15]; first compound 20 µM,0.163
same,relative viability,[16]; first compound 0.2 µM,0.807
same,relative viability,[16]; first compound 2 µM,0.621
same,relative viability,[16]; first compound 6.325 µM,0.652
same,relative viability,[16]; first compound 20 µM,0.149
same,relative viability,[17]; first compound 0.2 µM,0.724
same,relative viability,[17]; first compound 0.6325 µM,0.923
same,relative viability,[17]; first compound 2 µM,0.733
same,relative viability,[17]; first compound 6.325 µM,0.83
same,relative viability,[17]; first compound 20 µM,0.213
same,relative viability,[18]; first compound 0.2 µM,0.849
same,relative viability,[18]; first compound 0.6325 µM,0.444
same,relative viability,[18]; first compound 2 µM,0.549
same,relative viability,[18]; first compound 6.325 µM,0.538
same,relative viability,[18]; first compound 20 µM,0.596
same,relative viability,[19]; first compound 0.2 µM,0.54
same,relative viability,[19]; first compound 0.6325 µM,0.361
same,relative viability,[19]; first compound 2 µM,0.442
same,relative viability,[19]; first compound 6.325 µM,0.311
same,relative viability,[19]; first compound 20 µM,0.0619
same,relative viability,[20]; first compound 0.2 µM,0.853
same,relative viability,[20]; first compound 0.6325 µM,0.771
same,relative viability,[20]; first compound 2 µM,0.774
same,relative viability,[20]; first compound 6.325 µM,0.816
same,relative viability,[20]; first compound 20 µM,0.759
same,relative viability,[21]; first compound 0.2 µM,0.732
same,relative viability,[21]; first compound 0.6325 µM,0.394
same,relative viability,[21]; first compound 6.325 µM,1.17
same,relative viability,[21]; first compound 20 µM,0.689
